# Test results taken from publication PMC3242765, “Inhibitors of Alphavirus Entry and Replication Identified with a Stable Chikungunya Replicon Cell Line and Virus-Based Assays” (PLoS ONE, 2011).
# Several values for one entry are separate records, joined by “and”; a condition that tells them apart may be missing. Equal entries are not always repeated. Structures can show the parent of a compound that is named as a salt.
# Legend:
# CHIKV replicon = assay: microbe, parasite or virus in culture; format: cell-based, Chikungunya virus (CHIKV)
Compound,CHIKV replicon % left (CHIKV replicon),"SFV replication % left (surviving fraction, remaining percentage of SFV replication) (SFV-Rluc)"
COc1ccc(CN(CCN(C)C)c2ccccn2)cc1 [Pyrilamine maleate],85.4%,73.7%
CC(C)(C)NC[C@H](O)COc1ccccc1C1CCCC1 [Penbutolol],39.4%,45.0%
CCCCNC(=O)c1ccc(Cl)cc1O [Buclosamide],100.6%,49.6%
CCC1(c2ccccc2)C(=O)NCNC1=O [Primidone],41.6%,127.1%
CCN1C(=O)CC(=O)N(CC)C1=S,89.2%,75.7%
Nc1ccc(C(=O)O)cc1 [p-Aminobenzoic acid],105.4%,56.5%
Cn1cnc2c1c(=O)[nH]c(=O)n2C [Theobromine],70.2%,112.1%
Oc1cccc(O)c1 [Resorcin],72.2%,83.0%
NS(=O)(=O)c1cc2c(cc1Cl)N=CNS2(=O)=O [Chlorothiazide],82.1%,90.3%
COc1ccc(-c2cc(=O)c3c(O)cc(O)cc3o2)cc1 [Acacetin],103.3%,78.1%
"Cc1cc(=O)oc2cc(O)cc(O)c12 [5,7-Dihydroxy-4-methylcoumarin]",78.1%,66.7%
CN(C)CC[C@@H](c1ccc(Cl)cc1)c1ccccn1 [Dexchlorpheniramine maleate],51.7%,68.1%
Nc1ccc(S(=O)(=O)Nc2ccccn2)cc1 [Sulfapyridine],79.9%,95.0%
COc1ccc(O)c(C(C)(C)C)c1 [Butylated hydroxyanisole],79.9%,66.8%
CC(Cc1ccc2c(c1)OCO2)NCC(O)c1ccc(O)c(O)c1 (stereo not drawn) [Protokylol hydrochloride],85.4%,128.4%
O=c1ccc2ccc(O)c(O)c2o1 [Daphnetin],103.7% and 92.1%,90.6% and 81.7%
Cc1nnc(NS(=O)(=O)c2ccc(N)cc2)s1 [Sulfamethizole],79.1%,100.4%
O=C1CC(=O)NC(=O)N1 [Barbituric acid],88.4%,48.8%
COC(=O)c1cc(O)c(O)c(O)c1 [Methyl gallate],100.7%,67.8%
CCCCOC(=O)c1ccc(N)cc1 [Butyl 4-Aminobenzoate],102.7%,76.6%
Cc1cc(=O)n(-c2ccccc2)n1C [Antipyrine],102.6%,60.1%
C[C@@]12CCC[C@H]1[C@@H]1CC[C@H]3CCCC[C@]3(C)[C@H]1CC2 [4-a-Androstane],85.5%,53.0%
CCCC(C)C1(CC)C(=O)NC(=O)NC1=O (stereo not drawn) [Pentobarbital],104.3%,70.5%
C[C@]12C=CC(=O)C=C1CC[C@@H]1[C@@H]2C(=O)C[C@@]2(C)[C@H]1CC[C@]2(O)C(=O)CO [Prednisone],54.4%,85.0%

Compound,CHIKV replicon % left (CHIKV replicon),"SFV replication % left (surviving fraction, remaining percentage of SFV replication) (SFV-Rluc)"
"COc1cc(C(=O)O)cc(OC)c1OC [3,4,5-Trimethoxybenzoic acid]",28.8%,34.0%
O=c1cc(-c2ccccc2)oc2ccccc12 [Flavone],39.4%,52.2%
CN(C)CC/C=C1/c2ccccc2Sc2ccc(Cl)cc21 [Chlorprothixene hydrochloride],78.2%,90.3%
C[N+]1(C)[C@@H]2CC[C@H]1C[C@@H](OC(=O)C(CO)c1ccccc1)C2 (stereo partly drawn) [Atropine methyl nitrate],61.7%,46.8%
Nc1nc(=O)c2nc(CNc3ccc(C(=O)N[C@@H](CCC(=O)O)C(=O)O)cc3)cnc2[nH]1 [Folic acid],78.1%,100.0%
Cc1cccc(Nc2ccccc2C(=O)O)c1C [Mefenamic acid],99.4%,103.5%
CC(C(=O)[O-])c1cccc(Oc2ccccc2)c1.CC(C(=O)[O-])c1cccc(Oc2ccccc2)c1.[Ca+2] (stereo not drawn) [Fenoprofen calcium salt],78.3%,87.6%
CCCOC(=O)c1cc(O)c(O)c(O)c1 [n-Propyl gallate],39.4%,33.6%
Cc1c(N)c(=O)n(-c2ccccc2)n1C [4-Aminoantipyrine [ampyrone]],89.2%,51.6%
COc1cc2oc(=O)ccc2cc1O [Isoscopoletin],99.4%,120.6%
CN(C)CC[C@@H](c1ccc(Br)cc1)c1ccccn1 [Dexbrompheniramine maleate],100.4%,69.6%
Cc1ccc(O)c(O)c1 [4-Methyl pyrocatechol],98.8%,111.1%
CCC1(CC)C(=O)NC(=O)NC1=O [Barbital],106.1%,64.7%
O=C(O[C@@H]1Cc2c(O)cc(O)cc2O[C@@H]1c1cc(O)c(O)c(O)c1)c1cc(O)c(O)c(O)c1 [(-)-Epigallocatechin gallate],90.4%,155.3%
C#C[C@]1(O)CC[C@H]2[C@@H]3CCc4cc(O)ccc4[C@H]3CC[C@@]21C [17 -a-ethynylestradiol],59.8%,11.7%
C=CC[C@]1(O)CC[C@H]2[C@@H]3CCC4=CCCC[C@@H]4[C@H]3CC[C@@]21C,49.4%,37.2%
Cc1ncc(CO)c(CO)c1O [Pyridoxine hydrochloride],71.1%,100.9%
CCCCNC(=O)NS(=O)(=O)c1ccc(N)cc1 [1-Butyl-3-sulfanilylurea [carbutamide]],67.5%,83.9%
CCC1(c2ccccc2)C(=O)NC(=O)NC1=O [Phenobarbital sodium],70.8%,88.1%
CN1CCCCC1CCN1c2ccccc2Sc2ccc([S+](C)[O-])cc21 (stereo not drawn) [Mesoridazine besylate],100.5%,93.8%
O=c1cc(-c2ccccc2)oc2c1ccc1ccccc12 [Alphanaphthoflavone],30.8%,14.6%
O=C(OC[C@H]1OC(O)[C@@](O)(COC(=O)c2cc(O)c(O)c(O)c2)[C@@H]1O)c1cc(O)c(O)c(O)c1 (stereo partly drawn) [Hamamelitannin],40.1%,14.7%
CC(=O)Oc1c(C)cc(OCC(O)CNC(C)C)c(C)c1C (stereo not drawn) [Metipranolol],100.5%,46.2%
C[C@H]1O[C@@H](O[C@H]2[C@@H](O)C[C@H](O[C@H]3[C@@H](O)C[C@H](O[C@H]4CC[C@@]5(C)[C@H](CC[C@@H]6[C@@H]5C[C@@H](O)[C@]5(C)[C@@H](C7=CC(=O)OC7)CC[C@]65O)C4)O[C@@H]3C)O[C@@H]2C)C[C@H](O)[C@@H]1O [Digoxin],94.3%,141.9%
